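48-hour exposure; five concentrations; linearly interpolated endpoints. GI50: concentration for 50% inhibition of growth.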 Activity calls are given as the source filed them. No stated cut-off is given here; in the data, active = GI50 up to about 1.1 µM and inactive = higher.
How the values were obtained:
Experiment in all cases: growth of human tumour cells (NCI), 48 h
[1] = system: CAKI-1
[2] = system: HL-60
[3] = system: HOP-62
[4] = system: M19-MEL
[5] = system: MOLT-4
[6] = system: NCI-H226
[7] = system: NCI-H460
[8] = system: NCI-H522
[9] = system: RXF 393
[10] = system: SK-MEL-5
[11] = system: SR
[12] = system: SW-620
[13] = system: TK-10
[14] = system: U-251
[15] = system: RPMI-8226
[16] = system: SK-MEL-2
[17] = system: HCC 2998
[18] = system: HCT-116

Measured: GI50

O=C(N/N=C/c1cc(Br)ccc1O)N/N=C/c1cc(Br)ccc1O
inactive: [1] 2.79 µM | [2] 1.25 µM | [3] 4.46 µM | [4] > 100 µM | [5] 1.97 µM | [6] 2.02 µM | [7] 3.1 µM | [8] 1.99 µM | [9] > 100 µM | [10] 2.49 µM | [11] 3.5 µM | [12] 1.73 µM | [13] 54.6 µM | [14] 3.55 µM

C=CCN(N=O)C(=O)N(CCCCC(NC(C)=O)C(=O)NCc1ccccc1)Cc1ccccc1 (stereo not given)
inactive: [1] 28.6 µM | [2] 19.8 µM | [3] 57.9 µM | [4] 35.2 µM | [5] 13.8 µM | [6] 25.4 µM | [7] 39.2 µM | [8] 15.1 µM | [15] 16.1 µM | [9] 21.7 µM | [16] 37.1 µM | [10] 15.5 µM | [12] 33.8 µM | [13] 35.1 µM | [14] 42.5 µM

O=C1NC(=O)C2C(=O)NC(=O)C1C2(c1ccccc1)c1cc[nH]c1 (stereo not given)
inactive: [1] > 100 µM | [17] > 100 µM | [2] > 100 µM | [3] > 100 µM | [4] > 100 µM | [5] > 100 µM | [6] > 100 µM | [7] > 100 µM | [8] > 100 µM | [15] > 100 µM | [9] > 100 µM | [16] > 100 µM | [10] > 100 µM | [12] > 100 µM | [13] > 100 µM

Cc1ccc(S(=O)(=O)N/N=C(\CCN2CCCC2)CC(c2ccccc2)c2c(O)c3ccccc3oc2=O)cc1 (stereo not given)
inactive: [1] > 100 µM | [18] > 100 µM | [2] > 100 µM | [3] > 100 µM | [4] > 100 µM | [6] > 100 µM | [7] > 100 µM | [8] 99.5 µM | [15] > 100 µM | [9] > 100 µM | [16] > 100 µM | [10] > 100 µM | [11] > 100 µM | [12] 49.5 µM | [13] > 100 µM | [14] > 100 µM

CC(C)(C)C1=Cc2cc3cc(C(C)(C)C)[nH]c(=O)c3cc2S(=O)(=O)N1
inactive: [1] 12.2 µM | [18] 20.5 µM | [2] 21.2 µM | [3] 22.3 µM | [4] 19.7 µM | [5] 28.1 µM | [6] 19.9 µM | [7] 37 µM | [8] 15.3 µM | [15] 30.3 µM | [16] 18.7 µM | [11] 23.7 µM | [12] 21 µM | [13] 29.6 µM | [14] 18 µM

NC(=S)N/N=C(\C(=O)Nc1ccc(Cl)c(Cl)c1)C1=NN(c2ccccc2)C(c2cccc([N+](=O)[O-])c2)CC1=O (stereo not given)
inactive: [1] 79.4 µM | [17] 40.6 µM | [18] 4.29 µM | [2] 33.7 µM | [3] 34.6 µM | [4] 18.4 µM | [5] 17.3 µM | [6] 25.9 µM | [7] 36.6 µM | [15] 3.37 µM | [16] > 100 µM | [10] > 100 µM | [11] 28.6 µM | [12] 13.8 µM | [13] > 100 µM | [14] 4.31 µM

O=C(Cc1ccccc1[N+](=O)[O-])C(CO)c1ccccc1[N+](=O)[O-] (stereo not given)
inactive: [1] 40.5 µM | [17] > 100 µM | [18] 70.5 µM | [2] 67.1 µM | [3] > 100 µM | [4] 95.9 µM | [5] 35.7 µM | [6] 15.6 µM | [7] 96.8 µM | [8] 16.8 µM | [15] 78.7 µM | [9] 92.5 µM | [16] > 100 µM | [10] 31.7 µM | [12] > 100 µM | [13] > 100 µM | [14] > 100 µM

N#Cc1ccc(C(C2C(=O)NC(=O)NC2=O)C2C(=O)NC(=O)NC2=O)cc1
inactive: [1] > 100 µM | [17] > 100 µM | [18] > 100 µM | [2] > 100 µM | [3] > 100 µM | [4] > 100 µM | [5] > 100 µM | [6] > 100 µM | [7] > 100 µM | [8] > 100 µM | [15] > 100 µM | [16] > 100 µM | [10] > 100 µM | [11] > 100 µM | [12] > 100 µM | [13] > 100 µM | [14] > 100 µM

COc1ccc(/C=N\N2C(=O)Cc3ccccc32)cc1
inactive: [1] > 100 µM | [17] 25.4 µM | [18] > 100 µM | [2] > 100 µM | [3] 64.1 µM | [4] > 100 µM | [5] 41.4 µM | [6] > 100 µM | [7] > 100 µM | [15] > 100 µM | [16] > 100 µM | [10] > 100 µM | [12] > 100 µM | [13] 59.6 µM | [14] 48.4 µM
